Assay results from US20090196854A1, “METHODS AND COMPOSITIONS FOR USE OF CRL 5803 CELLS FOR EXPRESSION OF BIOTHERAPEUTICS AND ENCAPSULATED CELL-BASED DELIVERY” (priority 2008, published 2009).
Converted amounts (≈) assume the structure as drawn.

How the values were obtained:
[1] = tested on: CRL5867; assay: selection drug and ouabain sensitivity screen; format: cell-based, human; settings: resistant if IC50 >1000 μg/ml (G418, hygromycin), ouabain 10^-4 M range
Procedure: (§1) The cell lines were plated in 48 well plates at an appropriate dilution of cells for each cell line to provide for rapid entry into log phase of growth. The various concentrations of the selection drugs were added so that the drugs were present at the initiation of log phase growth and viable cells were determined after 7-10 days of culture. The screening used data for functional mass at the end of the study to express viable cells as a percentage of the vehicle, or no-treatment control wells. Each treatment concentration was based on results for at least 3-4 wells. The % viable cell mass data was plotted, and fitted typically with a four-parameter equation. The fitted equation was used to calculate the IC50 dose. The drugs tested were G418 (inactivated by neomycin phophotransferase, NPT), hygromycin (inactivated by hygromycin phosphotansferse, HPT), blasticidin (inactivated by blasticidin deaminase, BSD), and zeocin (bound by bleomycin binding protein, BBP). These antibiotics were obtained from Invitrogen/Gibco (Invitrogen SA, Barcelona). Cells were considered to be resistant if the IC50 was >1000 μg/ml for G418, hygromycin, and zeocin, or concentrations >20 μg/ml for blasticidin. Although ouabain is not a classical selection drug, the rodent gene for Na—K ATPase shifts the sensitivity into the 10^−4 M range, while human cells are sensitive in the 10^−9 to 10^−6 M range, thus IC50s in the 10^−4 M range were taken to indicate resistance.

[2] = tested on: CRL5808; assay: selection drug and ouabain sensitivity screen; format: cell-based, human; settings: ouabain IC50 in the 10^-4 M range taken as resistance
Procedure: as §1

[3] = tested on: CRL1803; assay: selection drug and ouabain sensitivity screen; format: cell-based, human; settings: ouabain IC50 in the 10^-4 M range taken as resistance
Procedure: as §1

[4] = tested on: HTB10; assay: sensitivity to killing by 2-deoxyglucose; format: cell-based, human
Procedure: (§2) The glucose requirements of CRL 5803 was also determined and compared to the HTB10 and CRL5816 cell lines.
(§3) The 2-deoxyglucose sensitivity was tested with the 4 cell lines being screened for CNS use with doses of 2-DG from 1-20 mM, the HTB10 cell line was also included in this screen as a positive control for 2-DG killing. […] However, 2-DG did result in slowed growth, and concentrations producing 50% inhibition (IC50) were calculated (based on a four-parameter fit of the data).

[5] = tested on: four candidate cell lines; assay: 2-deoxyglucose sensitivity (growth) of cell lines screened for CNS use; format: cell-based, human
Procedure: as §3

[6] = tested on: CRL 5803; assay: sensitivity to killing by 2-deoxyglucose; format: cell-based, human; settings: up to 20 mM 2-DG
Procedure: as §2

[7] = tested on: CRL5816 cells; assay: sensitivity to killing by 2-deoxyglucose; format: cell-based, human; settings: 10 mM 2-deoxyglucose, 4 days
[8] = tested on: CCL205; format: cell-based, human
Procedure: as §1, with “Each treatment concentration was based on results for at least 3-4 wells.” left out, “Barcelona).” for “Barcelona). Cells were considered to be resistant if the IC50 was >1000 μg/ml for G418, hygromycin, and zeocin, or concentrations >20 μg/ml for blasticidin. Although ouabain is not a classical selection drug, the rodent gene for Na—K ATPase shifts the sensitivity into the 10^−4 M range, while human cells are sensitive in the 10^−9 to 10^−6 M range, thus IC50s in the 10^−4 M range were taken to indicate resistance.”
(§4) The drugs, G418, Zeocin, hygromycin, and blasticidin were obtained and used as described earlier. The most important aspect of these studies was to identify the concentration needed to kill all non-transfected cells.

[9] = tested on: CRL5803; format: cell-based, human
Procedure: as §1, with “Each treatment concentration was based on results for at least 3-4 wells.” left out, “Barcelona).” for “Barcelona). Cells were considered to be resistant if the IC50 was >1000 μg/ml for G418, hygromycin, and zeocin, or concentrations >20 μg/ml for blasticidin. Although ouabain is not a classical selection drug, the rodent gene for Na—K ATPase shifts the sensitivity into the 10^−4 M range, while human cells are sensitive in the 10^−9 to 10^−6 M range, thus IC50s in the 10^−4 M range were taken to indicate resistance.”
as §4

[10] = tested on: ARPE-19; format: cell-based, human
Procedure: as §1, with “Each treatment concentration was based on results for at least 3-4 wells.” left out, “Barcelona).” for “Barcelona). Cells were considered to be resistant if the IC50 was >1000 μg/ml for G418, hygromycin, and zeocin, or concentrations >20 μg/ml for blasticidin. Although ouabain is not a classical selection drug, the rodent gene for Na—K ATPase shifts the sensitivity into the 10^−4 M range, while human cells are sensitive in the 10^−9 to 10^−6 M range, thus IC50s in the 10^−4 M range were taken to indicate resistance.”
as §4

[11] = tested on: CRL1440; format: cell-based, human
Procedure: as §1, with “Each treatment concentration was based on results for at least 3-4 wells.” left out, “Barcelona).” for “Barcelona). Cells were considered to be resistant if the IC50 was >1000 μg/ml for G418, hygromycin, and zeocin, or concentrations >20 μg/ml for blasticidin. Although ouabain is not a classical selection drug, the rodent gene for Na—K ATPase shifts the sensitivity into the 10^−4 M range, while human cells are sensitive in the 10^−9 to 10^−6 M range, thus IC50s in the 10^−4 M range were taken to indicate resistance.”
as §4

[12] = tested on: CRL1440 polyclones; assay: Blsd dose-response of growth in BSD-transfected polyclones; format: cell-based, human
Text: (§5) Each cell line was transfected under conditions optimized for that specific cell line, and with each of three different constructs. Within 2-3 days of transfection the cultures were selected with blasticidin at the appropriate selection concentration identified for that cell line.
(§6) The three plasmid constructs tested differed in the promoter used to control the expression of the BSD gene (commercial plasmids from Invitrogen). At the end of selection (10-14 days) the surviving cells were passaged to establish a B1sd-resistant polyclone. Each Blsd-resistant polyclonal cell line was analyzed for the capacity to grow in Blsd at varying concentrations. The Blsd dose-response curve was plotted (growth vs dose) and the IC50 calculated for each promoter construct. The IC50 was taken to indicate the average BSD enzyme expression and activity level, and to indicate the relative activity of the regulatory elements in each cell line context.

[13] = tested on: ARPE-19 polyclones; assay: as above; format: cell-based, human
Text: as §5, §6

[14] = tested on: CCL205 polyclones; assay: as above; format: cell-based, human
Text: as §5, §6

[15] = tested on: CRL 5803 polyclones; assay: as above; format: cell-based, human; settings: for IC50 for Blsd-resistant growth: CRL 5803
Text: as §5, §6

[16] = tested on: human cell lines (CCL205, A2058, CRL1440, ARPE-19, CRL 5803); format: cell-based
Procedure: The newly selected cell types were then screened for r sensitivity to 5-fluorouracil (5-FU). This screening was accomplished by plating the cell lines in 48 well plates, and after overnight attachment adding varying concentrations of 5-FU from 0-500 μM. The growth of the cells was then monitored at 1-2 day intervals with the fluorescent substrate resazurin.

SMILES: C[C@@H]1O[C@@H](O[C@H]2C[C@@H](O)[C@]3(CO)[C@H]4[C@H](O)C[C@]5(C)[C@@H](C6=CC(=O)OC6)CC[C@]5(O)[C@@H]4CC[C@]3(O)C2)[C@H](O)[C@H](O)[C@H]1O [ouabain]
- resistance or sensitivity to drug [1]: resistance
- resistance or sensitivity to drug [2]: resistant
- resistance or sensitivity to drug [3]: resistant

SMILES: O=CC[C@@H](O)[C@H](O)[C@H](O)CO [2-DG, 2-deoxyglucose]
- killing by 2-DG ([4]; HTB10 positive control, doses 1-20 mM): killed with the lowest concentration
- IC50 ([4]; Homo sapiens, HTB10, read-out: 2-DG concentration for 50% killing): 600 µM
- IC50 ([5]; Homo sapiens, range over the cell lines, four-parameter fit, read-out: concentrations producing 50% inhibition (IC50) of growth): 5000 to 11000 µM
- killing by 2-DG ([5]; doses of 2-DG from 1-20 mM): no killing
- sensitivity to killing by 2-deoxyglucose [6]: nor was it sensitive to killing
- viable cells after 2-deoxyglucose [7]: no detectable viable cells

SMILES: CN(CC[C@H](N)CC(=O)N[C@H]1C=C[C@H](n2ccc(N)nc2=O)O[C@@H]1C(=O)O)C(=N)N [Blasticidin]
- concentration found to kill non-transfected cells [8]: 1 µg/mL
- concentration found to kill non-transfected cells [9]: 2 µg/mL
- concentration found to kill non-transfected cells [10]: 3 µg/mL
- concentration found to kill non-transfected cells [11]: 1 µg/mL
- IC50 for Blsd-resistant growth ([12]; CMV promoter-BSD): 0.6 µg/mL
- IC50 for Blsd-resistant growth ([12]; EF-1 promoter polyclones): 5 µg/mL
- IC50 for Blsd-resistant growth ([12]; UBq promoter polyclones): 21 µg/mL
- IC50 for Blsd-resistant growth ([13]; CMV promoter-BSD): 12 µg/mL
- IC50 for Blsd-resistant growth ([13]; EF-1a promoter-BSD): 4.5 µg/mL
- IC50 for Blsd-resistant growth ([13]; UBq promoter-BSD): 3 µg/mL
- shift in the inhibitory concentration of Blsd ([13]; best promoter): 8 fold
- IC90 ([14]; CMV promoter): > 3 µg/mL
- IC90 ([14]; EF-1 and UBq promoter constructs): 0.8 µg/mL (≈ 1.89 µM)
- growth-based IC50 ([14]; all three promoter constructs): 0.6 µg/mL
- IC50 for Blsd-resistant growth ([15]; CMV promoter-BSD): 21 µg/mL
- IC50 for Blsd-resistant growth ([15]; EF-1α promoter-BSD): 3 µg/mL
- IC50 for Blsd-resistant growth ([15]; UBq promoter-BSD): 35 µg/mL
- IC50 for growth in Blsd ([15]; CRL 5803 control cells transfected with NPT plasmid (no BSD)): 1 μg-Blsd/ml
- shift in the inhibitory concentration of Blsd ([15]; CRL 5803 polyclones, best promoter): 30 fold

SMILES: CN[C@@H]1[C@@H](O)[C@@H](O[C@@H]2[C@@H](O)[C@H](O[C@H]3O[C@H]([C@@H](C)O)[C@@H](O)[C@H](O)[C@H]3N)[C@@H](N)C[C@H]2N)OC[C@]1(C)O [G418]
- concentration found to kill non-transfected cells [8]: 75 µg/mL
- concentration found to kill non-transfected cells [9]: 500 µg/mL
- concentration found to kill non-transfected cells [10]: 175 µg/mL
- concentration found to kill non-transfected cells [11]: 100 µg/mL
- resistance or sensitivity to drug [1]: sensitive to killing

SMILES: O=c1ccc2nc3ccc(O)cc3oc-2c1 [resorufin]
- concentration toxic with many cells [16]: 1000 to 10000 nM
